These results are taken from the NIST ThermoML archive (doi:10.1016/j.fluid.2012.11.029).

± gives the expanded uncertainty stated by the source.

The conditions of data set [1]: Crystal; DTA.
Data set [2] can be described thus: Molar enthalpy of transition or fusion. The following applies: Crystal; DSC.

Turning to `CCCCCCCCCC[N+](C)(C)CCCCCCCCCC.O=[N+]([O-])[O-]` [Didecyldimethylammonium nitrate], in data set [1], the Normal melting temperature was found to be 31.7 ± 1.1 °C. The “Molar enthalpy of transition or fusion” value in data set [2] was 2.33 ± 0.0789 kcal/mol.
Take `NNC(=O)c1ccncc1` [isonicotinic acid hydrazide]: the Normal melting temperature in data set [1] was 172.69 ± 1.1 °C. Further, the “Molar enthalpy of transition or fusion” value in data set [2] is 6.67 ± 0.191 kcal/mol.
For `NC(=O)c1cnccn1` [pyrazinecarboxamide] the same measures were 188.27 ± 1.1 °C and 6.72 ± 0.191 kcal/mol.
